Like-named read-outs stand apart in the source and are kept apart here.
What was measured:
[1] = test system: human breast cancer cell line MCF-7; assay: Cancer cell growth inhibition test (CellTiter-Glo); assay type: cell-based; details: MCF-7, 72 hours
Method: The human breast cancer cell line MCF-7 was treated with trypsin and harvested. The number of cells was counted, and about 3000 cells/80 μl per well were inoculated into a 96 well plate (Corning) and then incubated in a 37° C. incubator for 24 hours. Thereafter, the example compounds were diluted in a culture solution at various concentrations, and each well was treated with 20 μl and stored in a cell culture incubator for 72 hours. In the case of the group administered in combination, the example compounds and cisplatin or doxorubicin were diluted in a culture solution at various concentrations, and each well was treated with 20 μl. After 72 hours, each well was treated with 30 μl of CellTiter-Glo solution (Promega), and the luminescence was read on a Victor3 multi label reader (PerkinElmer).
Relative viability (%)=(value of each test well/value of well treated with DMSO alone)×100
The results obtained for each concentration for each example compound were the average values obtained from three wells, and PRIZM software was used for analysis of the results.

Chk2 kinase = Chk2 kinase (Homo sapiens (Human), UniProt O96017); assay: Chk2 kinase inhibitory activity (LanthaScreen TR-FRET); assay type: biochemical; details: graded
Method: (§1) The compounds of Examples 1 to 66 were diluted at various concentrations and transferred to a 384-well plate by 5 μl, and 10 μl of a mixed solution (2×) of Chk1 kinase (Thermo, P3040) or Chk2 kinase (Thermo, PV3367) and a substrate (Thermo, PV3508) was added to wells treated with the compounds. 5 μl of an ATP solution at a 4× concentration was added to the test well and reacted at room temperature for 1 hour. 20 μl of LanthaScreen Terbium-CREB p-Ser 133 antibody (Thermo, PV3542) was added to the reaction well and incubated at room temperature for 30 minutes. Conversion data was measured by an EnVision 2014 multi label reader (PerkinElmer). The activity for each concentration was determined by the ratio (FRET ratio=FR) of the value obtained by dividing the value at 520 nm by the value at 490 nm among the emission wavelength values for each wavelength (Em520/Em490). The results obtained for each concentration of the compounds were the average values obtained in two wells, and the IC50 values of the compounds were calculated using PRIZM software for analysis of the results. IC50 in Table 7 was graded as follows.

Chk1 kinase = Chk1 kinase (Homo sapiens (Human), UniProt O14757); assay: Chk1 kinase inhibitory activity (LanthaScreen TR-FRET); assay type: biochemical; details: graded
Method: as §1

[2] = Homo sapiens, MCF7, 72 h, graded, read-out: Celltiter glo analysis (IC50)
[3] = Homo sapiens, MCF7, 72 h, alone, read-out: Administered alone (IC50)
[4] = combination with cisplatin, read-out: Administered in combination with cisplatin (IC50)
[5] = combination with doxorubicin, read-out: Administered in combination with doxorubicin (IC50)

Sequence of Chk2 kinase (O96017 whole entry): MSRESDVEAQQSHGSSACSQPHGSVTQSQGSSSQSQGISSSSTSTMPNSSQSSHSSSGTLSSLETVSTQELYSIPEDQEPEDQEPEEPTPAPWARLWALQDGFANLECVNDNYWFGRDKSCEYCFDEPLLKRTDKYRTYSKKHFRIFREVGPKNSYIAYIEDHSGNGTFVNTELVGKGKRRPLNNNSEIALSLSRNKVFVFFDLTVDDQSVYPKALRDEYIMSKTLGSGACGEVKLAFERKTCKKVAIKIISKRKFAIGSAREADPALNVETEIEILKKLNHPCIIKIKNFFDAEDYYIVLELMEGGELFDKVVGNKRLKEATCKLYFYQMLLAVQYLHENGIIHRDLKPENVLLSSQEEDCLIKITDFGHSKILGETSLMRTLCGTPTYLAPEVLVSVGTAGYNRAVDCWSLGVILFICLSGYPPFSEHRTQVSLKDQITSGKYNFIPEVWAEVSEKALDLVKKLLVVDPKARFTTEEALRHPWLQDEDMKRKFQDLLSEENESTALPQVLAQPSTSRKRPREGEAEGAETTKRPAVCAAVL
Sequence of Chk1 kinase (O14757 whole entry): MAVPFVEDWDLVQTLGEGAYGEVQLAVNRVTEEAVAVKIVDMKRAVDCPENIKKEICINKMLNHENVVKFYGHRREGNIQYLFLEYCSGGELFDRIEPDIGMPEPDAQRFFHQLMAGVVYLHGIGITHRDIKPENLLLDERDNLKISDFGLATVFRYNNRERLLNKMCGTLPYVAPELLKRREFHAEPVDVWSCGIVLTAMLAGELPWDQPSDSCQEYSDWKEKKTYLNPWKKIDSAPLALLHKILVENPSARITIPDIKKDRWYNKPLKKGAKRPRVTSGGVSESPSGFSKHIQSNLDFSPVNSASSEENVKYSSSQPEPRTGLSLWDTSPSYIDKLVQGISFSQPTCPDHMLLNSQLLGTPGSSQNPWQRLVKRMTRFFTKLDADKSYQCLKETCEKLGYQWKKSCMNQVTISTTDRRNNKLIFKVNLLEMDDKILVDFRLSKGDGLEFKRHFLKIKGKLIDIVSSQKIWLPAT

| IC50 [1, 2] [µM] | IC50 (Chk2 kinase) [nM] | IC50 (Chk1 kinase) [nM] | IC50 ([1]; graded, read-out: Celltiter glo analysis (IC50)) [µM] | IC50 [1, 3] [µM] | IC50 [1, 4] [µM] | IC50 [1, 5] [µM] | Compound |
| --- | --- | --- | --- | --- | --- | --- | --- |
| ≤ 10 | 10 to 100 | ≤ 10 | – | – | – | – | CC1(C)Cc2c(-c3ccc(F)c(-c4cnc(N)c(C(=O)N[C@@H]5CNC[C@@H](F)C5)n4)c3)cnn2C1 [Example 44, 3-amino-6-(5-(5,5-dimethyl-5,6-dihydro-4H-pyrrolo [1,2-b]pyrazol-3-yl)-2-fluorophenyl)-N-((3S,5S)-5-fluoropiperidin-3-yl)pyrazine-2-carboxamide] |
| – | 10 to 100 | > 1000 | ≤ 10 | – | – | – | CC1(C)Cc2c(-c3ccc(F)c(-c4cnc(N)c(C(=O)N[C@H]5CCC6(CC6)NC5)n4)c3)cnn2C1 (stereo in doubt) [Example 66, 3-amino-6-(5-(5,5-dimethyl-5,6-dihydro-4H-pyrrolo[1,2-b]pyrazol-3-yl)-2-fluorophenyl)-N-(4-azaspiro[2.5]octan-6-yl)pyrazine-2-carboxamide] |
| ≤ 10 | ≤ 10 | 100 to 1000 | – | 11.8 | 2.27 | 3.05 | Nc1ncc(-c2ccnc(-c3cnn(CC(F)(F)F)c3)c2)nc1C(=O)N[C@@H]1CNC[C@@H](F)C1 [Example 15, 3-amino-N-((3S,5S)-5-fluoropiperidin-3-yl)-6-(2-(1-(2,2,2-trifluoroethyl)-1H-pyrazol-4-yl)pyridin-4-yl)pyrazine-2-carboxamide] |
| > 100 | 10 to 100 | > 1000 | – | – | – | – | N#CCn1cc(-c2cccc(-c3cnc(N)c(C(=O)N[C@@H]4CNCC[C@H]4O)n3)c2)cn1 [Example 25, 3-amino-6-(3-(1-(cyanomethyl)-1H-pyrazol-4-yl)phenyl)-N-((3R,4R)-4-hydroxypiperidin-3-yl)pyrazine-2-carboxamide] |
| 10 to 100 | ≤ 10 | 10 to 100 | – | – | – | – | CC1(C)Cc2c(-c3cccc(-c4cnc(N)c(C(=O)N[C@H]5CCCNC5)n4)c3)cnn2C1 [Example 42, (S)-3-amino-6-(3-(5,5-dimethyl-5,6-dihydro-4H-pyrrolo[1,2-b]pyrazol-3-yl)phenyl)-N-(piperidin-3-yl) pyrazine-2-carboxamide] |
| 10 to 100 | 10 to 100 | > 1000 | – | 48.1 | 3.44 | 0.67 | Nc1ncc(-c2cc(-c3cnn(CC(F)(F)F)c3)ncc2F)nc1C(=O)N[C@@H]1CNCC(F)(F)C1 [Example 4, (S)-3-amino-N-(5,5-difluoropiperidin-3-yl)-6-(5-fluoro-2-(1-(2,2,2-trifluoroethyl)-1H-pyrazol-4-yl)pyridin-4-yl)pyrazine-2-carboxamide] |
| 10 to 100 | 10 to 100 | 100 to 1000 | – | – | – | – | Nc1ncc(-c2cc(-c3cnn(CC(F)(F)F)c3)ncc2F)nc1C(=O)N[C@@H]1CNC[C@@H](F)C1 [Example 2, 3-amino-6-(5-fluoro-2-(1-(2,2,2-trifluoroethyl)-1H-pyrazol-4-yl)pyridin-4-yl)-N-((3S,5S)-5-fluoropiperidin-3-yl)pyrazine-2-carboxamide] |
| 10 to 100 | 10 to 100 | 100 to 1000 | – | – | – | – | Nc1ncc(-c2cc(-c3cnn(C4CC4)c3)ccc2F)nc1C(=O)N[C@H]1CCCNC1 [Example 31, (S)-3-amino-6-(5-(1-cyclopropyl-1H-pyrazol-4-yl)-2-fluorophenyl)-N-(piperidin-3-yl)pyrazine-2-carboxamide] |
| 10 to 100 | > 1000 | > 1000 | – | – | – | – | Cc1ccc(-c2cnn(CC(C)(C)O)c2)cc1-c1cnc(N)c(C(=O)N[C@@H]2CNCC(F)(F)C2)n1 [Example 38, (S)-3-amino-N-(5,5-difluoropiperidin-3-yl)-6-(5-(1-(2-hydroxy-2-methylpropyl)-1H-pyrazol-4-yl)-2-methylphenyl)pyrazine-2-carboxamide] |
| 10 to 100 | ≤ 10 | – | – | – | – | – | CC1(C)Cc2c(-c3nccc(-c4cnc(N)c(C(=O)N[C@H]5CCC6(CC6)NC5)n4)n3)cnn2C1 [Example 63, (S)-3-amino-6-(2-(5,5-dimethyl-5,6-dihydro-4H-pyrrolo[1,2-b]pyrazol-3-yl)pyrimidin-4-yl)-N-(4-azaspiro[2.5]octan-6-yl) pyrazine-2-carboxamide] |
| > 100 | ≤ 10 | – | – | – | – | – | CC(C)(O)Cn1cc(-c2cc(-c3cnc(N)c(C(=O)N[C@H]4CCCNC4)n3)ccn2)cn1 [Example 5, (S)-3-amino-6-(2-(1-(2-hydroxy-2-methylpropyl)-1H-pyrazol-4-yl)pyridin-4-yl)-N-(piperidin-3-yl) pyrazine-2-carboxamide] |
| 10 to 100 | > 1000 | – | – | – | – | – | CC(C)(O)Cn1cc(-c2cc(-c3cnc(N)c(C(=O)N[C@@H]4CNC[C@@H](F)C4)n3)c(F)cn2)cn1 [Example 22, 3-amino-6-(5-fluoro-2-(1-(2-hydroxy-2-methylpropyl)-1H-pyrazol-4-yl)pyridin-4-yl)-N-((3S,5S)-5-fluoropiperidin-3-yl)pyrazine-2-carboxamide] |
| > 100 | ≤ 10 | – | – | – | – | – | CC1(C)Cc2c(-c3cccc(-c4cnc(N)c(C(=O)N[C@@H]5CNC[C@H]5O)n4)c3)cnn2C1 [Example 60, 3-amino-6-(3-(5,5-dimethyl-5,6-dihydro-4H-pyrrolo[1,2-b]pyrazol-3-yl)phenyl)-N-((3R,4R)-4-hydroxypyrrolidin-3-yl)pyrazine-2-carboxamide] |
| 10 to 100 | 10 to 100 | – | – | – | – | – | CC1(C)Cc2c(-c3ccc(F)c(-c4cnc(N)c(C(=O)N[C@@H]5CNCC[C@H]5O)n4)c3)cnn2C1 [Example 47, 3-amino-6-(5-(5,5-dimethyl-5,6-dihydro-4H-pyrrolo[1,2-b]pyrazol-3-yl)-2-fluorophenyl)-N-((3R,4R)-4-hydroxypiperidine-3-yl) pyrazine-2-carboxamide] |
| – | – | 10 to 100 | – | – | – | – | CC(C)(O)Cn1cc(-c2cc(-c3cnc(N)c(C(=O)N[C@@H]4CNC[C@@H](F)C4)n3)ccn2)cn1 [Example 34, 3-amino-N-((3S,5S)-5-fluoropiperidin-3-yl)-6-(2-(1-(2-hydroxy-2-methylpropyl)-1H-pyrazol-4-yl)pyridin-4-yl)pyrazine-2-carboxamide] |
| 10 to 100 | ≤ 10 | – | – | – | – | – | CC(C)(O)Cn1cc(-c2cc(-c3cnc(N)c(C(=O)N[C@H]4CCC5(CC5)NC4)n3)ccn2)cn1 [Example 7, (S)-3-amino-6-(2-(1-(2-hydroxy-2-methylpropyl)-1H-pyrazol-4-yl)pyridin-4-yl)-N-(4-azaspiro[2.5]octan-6-yl)pyrazine-2-carboxamide] |
| 10 to 100 | ≤ 10 | – | – | – | – | – | CC1(C)Cc2c(-c3cc(-c4cnc(N)c(C(=O)N[C@@H]5CNC[C@@H](F)C5)n4)ccn3)cnn2C1 [Example 48, 3-amino-6-(2-(5,5-dimethyl-5,6-dihydro-4H-pyrrolo[1,2-b]pyrazol-3-yl)pyridin-4-yl)-N-((3S,5S)-5-fluoropiperidin-3-yl)pyrazine-2-carboxamide] |
| 10 to 100 | ≤ 10 | – | – | – | – | – | Nc1ncc(-c2cc(-c3cnn(CC(F)(F)F)c3)ccc2O)nc1C(=O)N[C@@H]1CNC[C@@H](F)C1 [Example 23, 3-amino-N-((3S,5S)-5-fluoropiperidin-3-yl)-6-(2-hydroxy-5-(1-(2,2,2-trifluoroethyl)-1H-pyrazol-4-yl)phenyl)pyrazine-2-carboxamide] |
| > 100 | 10 to 100 | – | – | – | – | – | CC1(C)Cc2c(-c3ccc(O)c(-c4cnc(N)c(C(=O)N[C@@H]5CNC[C@H]5O)n4)c3)cnn2C1 [Example 57, 3-amino-6-(5-(5,5-dimethyl-5,6-dihydro-4H-pyrrolo[1,2-b]pyrazol-3-yl)-2-hydroxyphenyl)-N-((3R,4R)-4-hydroxypyrrolidin-3-yl)pyrazine-2-carboxamide] |

From US20250188059A1, “NOVEL COMPOUND AND USE THEREOF FOR INHIBITING CHECKPOINT KINASE 2” (ARUM THERAPEUTICS INC, priority 2022, published 2025)
